Test results published in PMC5025651, “Reprofiled anthelmintics abate hypervirulent stationary-phase Clostridium difficile” (Scientific Reports, 2016).
Values after ≈ are worked out from the molar mass of the structure shown. Read-outs that look alike come from different tables or passages of the source.

How the values were obtained:
L. plantarum ATCC 8014 = assay: MIC by broth microdilution; assay type: cell-based; conditions: Lactiplantibacillus plantarum, ATCC8014; L. plantarum ATCC 8014; CAMHB with 5% laked horse blood, ~48 h; duplicate; read-out: MIC
B. subtilis ATCC 6051 = assay: MIC by broth microdilution; assay type: cell-based; conditions: Bacillus subtilis, ATCC6051; B. subtilis ATCC 6051; CAMHB, aerobic; duplicate; read-out: MIC
[1] = tested on: C. difficile isolate 20110740 (ribotype 018); assay: MIC by broth microdilution; assay type: cell-based, Clostridium difficile; conditions: Clostridioides difficile; isolate 20110740, ribotype 018; duplicate; read-out: MIC
S. aureus RN4220 = assay: MIC by broth microdilution; assay type: cell-based; conditions: Staphylococcus aureus, CAMHB, aerobic, duplicate
[2] = tested on: C. difficile isolate 20110973 (ribotype 106); assay: MIC by broth microdilution; assay type: cell-based, Clostridium difficile; conditions: Clostridioides difficile; isolate 20110973, ribotype 106; duplicate; read-out: MIC
A. baumannii M2 = assay: MIC by broth microdilution; assay type: cell-based; conditions: Acinetobacter baumannii; A. baumannii M2; CAMHB, aerobic; duplicate; read-out: MIC
[3] = tested on: C. difficile isolate 20110869 (ribotype 001_072); assay: MIC by broth microdilution; assay type: cell-based, Clostridium difficile; conditions: Clostridioides difficile; isolate 20110869, ribotype 001_072; duplicate; read-out: MIC
[4] = tested on: C. difficile isolate 20120016 (ribotype 019); assay: MIC by broth microdilution; assay type: cell-based, Clostridium difficile; conditions: Clostridioides difficile; isolate 20120016, ribotype 019; duplicate; read-out: MIC
[5] = tested on: C. difficile isolate 20121412 (ribotype 047); assay: MIC by broth microdilution; assay type: cell-based, Clostridium difficile; conditions: Clostridioides difficile; isolate 20121412, ribotype 047; duplicate; read-out: MIC
[6] = tested on: C. difficile isolate 20111163 (ribotype 024); assay: MIC by broth microdilution; assay type: cell-based, Clostridium difficile; conditions: Clostridioides difficile; isolate 20111163, ribotype 024; duplicate; read-out: MIC
[7] = tested on: C. clostridioforme ATCC 25537; assay: MIC by broth microdilution; assay type: cell-based, Clostridium clostridioforme; conditions: Clostridium, ATCC25537; C. clostridioforme ATCC 25537; BHIS, anaerobic; duplicate; read-out: MIC
P. nigrescens ATCC 33563 = assay: MIC by broth microdilution; assay type: cell-based; conditions: Prevotella nigrescens, ATCC33563; P. nigrescens ATCC 33563; supplemented Brucella broth, anaerobic; duplicate; read-out: MIC
[8] = tested on: B. thetaiotaomicron ATCC 29148; assay: microbe, parasite or virus in culture; assay type: cell-based; conditions: Bacteroides thetaiotaomicron, ATCC29148
C. difficile strain 4118 [9] = assay: Time-kill kinetics against stationary-phase cultures; assay type: cell-based, Clostridium difficile; conditions: stationary-phase CD4118
Protocol: At t = 0, 3, 6 and 24 h, sample aliquots were withdrawn from the treated cultures and bacterial viability was scored by plating serial dilutions on BHIS agar plates. The agar plates were incubated in the anaerobic chamber for 20–24 h at 37 °C. Kinetic experiments were performed at least twice.

16 C. difficile isolates = assay: MIC by broth microdilution, summary over 16 C. difficile isolates; assay type: cell-based, Clostridium difficile; conditions: n = 2
[10] = tested on: C. difficile isolate 20110742 (ribotype 002); assay: MIC by broth microdilution; assay type: cell-based, Clostridium difficile; conditions: Clostridioides difficile; isolate 20110742, ribotype 002; duplicate; read-out: MIC
S. epidermidis 1457 = assay: MIC by broth microdilution; assay type: cell-based; conditions: Staphylococcus epidermidis; S. epidermidis 1457; CAMHB, aerobic; duplicate; read-out: MIC
[11] = tested on: L. johnsonii Strain 135-1-CHN; assay: MIC by broth microdilution; assay type: cell-based; conditions: Lactobacillus johnsonii, STRAIN1351CHN; L. johnsonii 135-1-CHN; CAMHB with 5% laked horse blood, ~48 h; duplicate; read-out: MIC
C. difficile strain 4118 [12] = assay: Minimum bactericidal concentration (MBC), logarithmic- and stationary-phase cells; assay type: cell-based, Clostridium difficile; conditions: Clostridioides difficile, 4118, 20–24 h, n = 2
Protocol: The procedure for MBC determination was adapted from that of Alam et al.[44]. Briefly, a single overnight colony of C. difficile strain 4118 (streaked onto blood agar plate) was suspended in BHIS and grown to OD600 ~ 0.4–0.5 (logarithmic phase) or for 24 h (stationary phase). In 96-well microtiter plates, cultures were added to two-fold serial dilutions of test compounds in BHIS and incubated for 20–24 h at 37 °C in an anaerobic chamber. […] MBC measurements were performed in duplicate.

[13] = tested on: L. reuteri Strain CF48-3A; assay: MIC by broth microdilution; assay type: cell-based, Lactobacillus reuteri; conditions: Limosilactobacillus reuteri; L. reuteri CF48-3A; CAMHB with 5% laked horse blood, ~48 h; duplicate; read-out: MIC
[14] = tested on: C. difficile isolate 20121190 (ribotype 126); assay: MIC by broth microdilution; assay type: cell-based, Clostridium difficile; conditions: Clostridioides difficile; isolate 20121190, ribotype 126; duplicate; read-out: MIC
P. distasonis ATCC 8503 = assay: MIC by broth microdilution; assay type: cell-based; conditions: Parabacteroides distasonis, ATCC8503; P. distasonis ATCC 8503; supplemented Brucella broth, anaerobic; duplicate; read-out: MIC
[15] = tested on: C. difficile isolate 20110986 (ribotype 078); assay: MIC by broth microdilution; assay type: cell-based, Clostridium difficile; conditions: Clostridioides difficile; isolate 20110986, ribotype 078; duplicate; read-out: MIC
[16] = tested on: C. difficile isolate 20100584 (ribotype 014); assay: MIC by broth microdilution; assay type: cell-based, Clostridium difficile; conditions: Clostridioides difficile; isolate 20100584, ribotype 014; duplicate; read-out: MIC
[17] = tested on: C. difficile strain 4118 (CD4118, ATCC BAA-1870, ribotype 027); assay: MIC by broth microdilution; assay type: cell-based, Clostridium difficile; conditions: Clostridioides difficile, ATCCBAA1870; BHIS broth, anaerobic, 20–24 h, n = 2; read-out: MIC C. difficile 4118
[18] = tested on: B. fragilis Strain CL05T00C42; assay: MIC by broth microdilution; assay type: cell-based; conditions: Bacteroides fragilis; B. fragilis CL05T00C42; supplemented Brucella broth, anaerobic; duplicate; read-out: MIC
[19] = tested on: C. difficile isolate 20110960 (ribotype 017); assay: MIC by broth microdilution; assay type: cell-based, Clostridium difficile; conditions: Clostridioides difficile; isolate 20110960, ribotype 017; duplicate; read-out: MIC
[20] = tested on: B. breve Strain EX336960VC19; assay: MIC by broth microdilution; assay type: cell-based; conditions: Bifidobacterium breve; B. breve EX336960VC19; LSM broth, anaerobic; duplicate; read-out: MIC
[21] = tested on: B. longum subsp. longum Strain 44B; assay: MIC by broth microdilution; assay type: cell-based; conditions: Bifidobacterium longum; B. longum subsp. longum 44B; LSM broth, anaerobic; duplicate; read-out: MIC
[22] = tested on: C. difficile isolate 20100422 (ribotype 054); assay: MIC by broth microdilution; assay type: cell-based, Clostridium difficile; conditions: Clostridioides difficile; isolate 20100422, ribotype 054; duplicate; read-out: MIC
C. sporogenes ATCC 15579 = assay: MIC by broth microdilution; assay type: cell-based; conditions: Clostridium sporogenes, ATCC15579, BHIS, anaerobic, duplicate
P. aeruginosa PAO1 = assay: MIC by broth microdilution; assay type: cell-based; conditions: Pseudomonas aeruginosa; P. aeruginosa PAO1; CAMHB, aerobic; duplicate; read-out: MIC
[23] = tested on: C. difficile isolate 20110961 (ribotype A12); assay: MIC by broth microdilution; assay type: cell-based, Clostridium difficile; conditions: Clostridioides difficile; isolate 20110961, ribotype A12; duplicate; read-out: MIC

## Cc1cc(C(C#N)c2ccc(Cl)cc2)c(Cl)cc1NC(=O)c1cc(I)cc(I)c1O (stereo not shown) [Closantel]
L. plantarum ATCC 8014
  MIC: > 32 µg/mL
B. subtilis ATCC 6051
  MIC: ≤ 0.03 µg/mL
[1]
  MIC: 0.25 µg/mL (≈ 0.377 µM)
S. aureus RN4220
  MIC: 0.25 µg/mL (≈ 0.377 µM)
[2]
  MIC: 0.25 µg/mL (≈ 0.377 µM)
A. baumannii M2
  MIC: > 32 µg/mL
[3]
  MIC: 1 µg/mL (≈ 1.51 µM)
[4]
  MIC: 0.25 µg/mL (≈ 0.377 µM)
[5]
  MIC: 0.125 µg/mL (≈ 0.189 µM)
[6]
  MIC: 0.13 to 0.25 µg/mL (≈ 0.196 to 0.377 µM)
[7]
  MIC: 4 µg/mL (≈ 6.03 µM)
P. nigrescens ATCC 33563
  MIC: 8 µg/mL (≈ 12.1 µM)
[8]
  MIC: > 32 µg/mL
C. difficile strain 4118 [9]; 4 × MIC, 24 h
  log decrease in the number of CFUs: 2.2 log
C. difficile strain 4118 [9]; 16× MIC (rafoxanide 2 μg/mL, closantel 4 μg/mL, compound 8 1 μg/mL)
  time to eradicate >99.9% of viable cells: 24 h
16 C. difficile isolates; Clostridioides difficile, MIC at which 50% of the 16 isolates are inhibited, read-out: MIC50
  MIC50: 0.25 µg/mL (≈ 0.377 µM)
16 C. difficile isolates; Clostridioides difficile, MIC at which 90% of the 16 isolates are inhibited, read-out: MIC90
  MIC90: 0.25 µg/mL (≈ 0.377 µM)
16 C. difficile isolates; range over 16 C. difficile isolates
  MIC Range: 0.13 to 1 µg/mL
[10]
  MIC: 0.13 to 0.25 µg/mL (≈ 0.196 to 0.377 µM)
S. epidermidis 1457
  MIC: ≤ 0.03 µg/mL
[11]
  MIC: 32 µg/mL (≈ 48.3 µM)
C. difficile strain 4118 [12]; minimum bactericidal concentration (≥3-log reduction) for logarithmic-phase cells, read-out: MBClog
  MBC: 2 µg/mL (≈ 3.02 µM)
C. difficile strain 4118 [12]; minimum bactericidal concentration (≥3-log reduction) for stationary-phase cells, read-out: MBCstat
  MBC: 4 µg/mL (≈ 6.03 µM)
[13]
  MIC: 32 µg/mL (≈ 48.3 µM)
[14]
  MIC: 0.25 µg/mL (≈ 0.377 µM)
P. distasonis ATCC 8503
  MIC: 16 µg/mL (≈ 24.1 µM)
[15]
  MIC: 0.25 µg/mL (≈ 0.377 µM)
[16]
  MIC: 0.25 µg/mL (≈ 0.377 µM)
[17]
  MIC: 0.25 µg/mL (≈ 0.377 µM)
[18]
  MIC: > 32 µg/mL
[19]
  MIC: 0.13 µg/mL (≈ 0.196 µM)
[20]
  MIC: > 32 µg/mL
[21]
  MIC: 16 µg/mL (≈ 24.1 µM)
[22]
  MIC: 0.25 µg/mL (≈ 0.377 µM)
C. sporogenes ATCC 15579
  MIC: 1 µg/mL (≈ 1.51 µM)
P. aeruginosa PAO1
  MIC: > 32 µg/mL
[23]
  MIC: 0.25 µg/mL (≈ 0.377 µM)
